Results reported in patent US20070053918A1, “Injectable depots consisting of liposomal aggregates for the delivery of active substances” (NOVOSOM AG, priority 2003, published 2007).

What was measured:
[1] = Inclusion of leuprolide acetate in liposomes (ultracentrifugation, RP-HPLC); format: physicochemical; settings: formulation L1 DPPC/DPPG/Chol liposomes, 100 mM lipid, extrusion 400 nm
Method: is dissolved in chloroform at 50° C. and subsequently dried completely in vacuum in a rotary evaporator. The lipid film is added with leuprolide acetate solution (2.5 mg/ml in 10 mM HEPES, 150 mM NaCl, pH 6) in an amount so as to form a 100 mM suspension. Subsequently, this suspension is hydrated in a water bath at 50° C for 45 minutes with agitating. Thereafter, the suspension is frozen. This is followed by 3 additional cycles of freezing and thawing.
Following final thawing, the liposomes are subjected to multiple extrusions through a membrane having a pore width of 400 nm (Avestin LiposoFast, polycarbonate membrane with a pore width of 400 nm).
Following removal of free leuprolide acetate, the percentage of entrapped leuprolide acetate is determined by means of triple sedimentation in an ultracentrifuge at 60,000×g for 45 minutes. The leuprolide acetate is determined following extraction with CHCl3 and CH3OH, using RP-HPLC. Inclusion rates of about 15% leuprolide acetate are found.

[2] = Inclusion of insulin in liposomes (ELISA after liberation from liposomes); format: physicochemical; settings: DPPC/DPPG/Chol 50:10:40 liposomes, 50 mM lipid, extrusion 200 or 400 nm
Method: A mixture of 50 mole-% DPPC, 10 mole-% DPPG and 40 mole-% Chol is dissolved in chloroform at 50° C. and subsequently dried completely in vacuum in a rotary evaporator. The lipid film is added with human insulin solution (recombinant insulin; 7.5 mg/ml insulin in 10 mM glycine-HCl, 300 mM sucrose, pH 3) in an amount so as to form a 50 mM suspension. Subsequently, this suspension is hydrated in a water bath at 50° C. for 45 minutes by agitating and treated in an ultrasonic bath for another 5 minutes. Thereafter, the suspension is frozen. This is followed by 3 cycles of freezing and thawing, each thawing being followed by a 5 minute treatment in the ultrasonic bath.
Following final thawing, the liposomes are subjected to multiple extrusions through a membrane having a pore width of 200 nm or 400 nm (Avestin LiposoFast, polycarbonate membrane with a pore width of 200 or 400 nm). Following extrusion, the resulting suspension is rebuffered by adding a solutions of HEPES, pH 7.5, and NaCl. After filtration of the liposomes through […], non-entrapped insulin is removed by gel filtration (S-200 column, Pharmacia) . Following liberation from the liposomes, the amount of entrapped insulin is determined by means of an ELISA (DRG-ELISA Kit). Inclusion rates of 50-70% insulin are found.

Row | Compound | Inclusion rate of leuprolide acetate [1] | Inclusion rate of insulin [2]
1 | CCNC(=O)[C@@H]1CCCN1C(=O)[C@H](CCCNC(=N)N)NC(=O)[C@H](CC(C)C)NC(=O)[C@@H](CC(C)C)NC(=O)[C@H](Cc1ccc(O)cc1)NC(=O)[C@H](CO)NC(=O)[C@H](Cc1c[nH]c2ccccc12)NC(=O)[C@H](Cc1c[nH]cn1)NC(=O)[C@@H]1CCC(=O)N1 [leuprolide acetate] | about 15% | 
2 | insulin: recombinant human insulin entrapped in DPPC/DPPG/Chol 50:10:40 liposomes |  | 50-70%
